Literature values as cited in US10561746B2, “Gel formulations for guiding radiotherapy” (DANMARKS TEKNISKE UNIVERSITET, priority 2013, dated 2020).

concentration at which self-assembled hydrogels form (in the presence of mM concentrations of NaCl, KCl, and CaCl2): > 10000 µg/mL
solubility in pure H2O (pure H2O): highly soluble
Substance: H-(FEFEFKFK)2-OH [FEK16]
